Assay results reported in US6653298B2, “Composition” (Sterix Limited, priority 2000, dated 2003).

Tests used:
[1] = tested on: Meth A sarcoma, B16 melanoma or MDA-MB-435 estrogen receptor negative (ER−) breast cancer cells; conditions: subcutaneous injection of Meth A sarcoma, B16 melanoma or MDA-MB-435 cells; cited from earlier work
endothelial cell = conditions: cited from earlier work
angiogenesis = conditions: cited from earlier work
microtubule = conditions: at high concentrations; cited from earlier work
tubulin = conditions: at high concentrations; cited from earlier work
E1-STS [2] = molecular target: T1, E1-STS (Homo sapiens, UniProt P08842); conditions: cited from earlier work
T1 sequence (P08842 22-583): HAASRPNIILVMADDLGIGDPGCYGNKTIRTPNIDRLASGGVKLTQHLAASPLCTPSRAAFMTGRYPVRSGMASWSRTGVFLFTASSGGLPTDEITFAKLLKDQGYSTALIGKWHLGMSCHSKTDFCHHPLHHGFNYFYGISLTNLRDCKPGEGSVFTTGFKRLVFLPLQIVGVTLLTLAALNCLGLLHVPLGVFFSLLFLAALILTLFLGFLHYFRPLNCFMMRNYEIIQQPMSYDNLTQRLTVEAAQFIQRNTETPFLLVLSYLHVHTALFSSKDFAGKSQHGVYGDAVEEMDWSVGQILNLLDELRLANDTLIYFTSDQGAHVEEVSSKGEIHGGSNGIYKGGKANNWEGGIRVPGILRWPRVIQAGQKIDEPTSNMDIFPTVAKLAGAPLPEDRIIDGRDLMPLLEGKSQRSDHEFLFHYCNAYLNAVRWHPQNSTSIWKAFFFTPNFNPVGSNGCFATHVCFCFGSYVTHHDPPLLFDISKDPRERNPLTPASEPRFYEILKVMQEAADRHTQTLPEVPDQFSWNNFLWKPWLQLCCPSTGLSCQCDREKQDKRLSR

uterine growth = conditions: cited from earlier work
[3] = referring to antigonadotropic properties; cited from earlier work
[4] = single oral dose 50 μg, FIG. 4; cited from earlier work
[5] = molecular target: T2, dehydroepiandrosterone sulphatase (DHA-STS) (Homo sapiens, UniProt P08842); conditions: cited from earlier work
T2 sequence (P08842 22-583): T1 sequence (P08842 22-583)

rat liver DHA-STS = molecular target: T3, rat liver DHA-STS (Rattus norvegicus, UniProt P15589); conditions: in vivo, administered either orally or subcutaneously; cited from earlier work
T3 construct: samples of liver tissue were obtained and oestrone sulphatase activity assayed; from tissue; host or cells: rat liver (after in vivo dosing)
T3 sequence (P15589 20-577): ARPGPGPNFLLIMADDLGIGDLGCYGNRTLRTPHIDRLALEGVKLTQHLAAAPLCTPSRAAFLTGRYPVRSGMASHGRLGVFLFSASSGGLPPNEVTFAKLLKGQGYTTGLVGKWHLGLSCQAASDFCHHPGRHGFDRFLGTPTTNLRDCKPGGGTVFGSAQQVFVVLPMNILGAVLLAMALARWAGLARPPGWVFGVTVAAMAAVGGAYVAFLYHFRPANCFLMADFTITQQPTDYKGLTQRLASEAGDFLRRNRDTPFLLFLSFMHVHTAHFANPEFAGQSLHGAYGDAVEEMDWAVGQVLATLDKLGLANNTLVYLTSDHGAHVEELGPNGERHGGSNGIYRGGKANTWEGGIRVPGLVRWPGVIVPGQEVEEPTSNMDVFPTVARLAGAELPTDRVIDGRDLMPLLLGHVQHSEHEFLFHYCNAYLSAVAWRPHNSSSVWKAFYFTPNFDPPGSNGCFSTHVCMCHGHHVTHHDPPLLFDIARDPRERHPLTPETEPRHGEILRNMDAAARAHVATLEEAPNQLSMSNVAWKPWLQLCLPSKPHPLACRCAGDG

[6] = rats; cited from earlier work
E1-STS [7] = molecular target: T1, E1-STS; set-up: endogenous in cells; host or cells: MCF-7; dose or concentration left out as unconfirmed; conditions: intact MCF-7 cells; cited from earlier work
[8] = Distribution of compound in blood (erythrocyte binding)
estrogen receptor [9] = experiment: In vitro estrogen receptor binding / displacement of radiolabelled oestradiol
Procedure: (§1) Oestradiol Sulfamate (J995) was investigated with respect to its hormonal properties in vitro and in vivo. In vitro studies included the evaluation of its specific binding to oestrogen receptors using cytosolic preparations of uterine tissue of rats and mice and MCF-7 tumor cells. In vivo studies were performed on several animal species including intact and ovariectomised rats and cynomolgus monkeys. These species served for detailed pharmacodynamic and pharmacokinetic studies at parenteral and oral administration of the compound.

estrogen receptor [10] = molecular target: T4, estrogen receptor (Mus musculus, UniProt P19785); experiment: Specific binding of radiolabelled J995 to estrogen receptor of mice
T4 construct: using cytosolic preparations of uterine tissue of rats and mice and MCF-7 tumor cells; from tissue; host or cells: mouse uterine cytosol
T4 sequence (P19785 1-599): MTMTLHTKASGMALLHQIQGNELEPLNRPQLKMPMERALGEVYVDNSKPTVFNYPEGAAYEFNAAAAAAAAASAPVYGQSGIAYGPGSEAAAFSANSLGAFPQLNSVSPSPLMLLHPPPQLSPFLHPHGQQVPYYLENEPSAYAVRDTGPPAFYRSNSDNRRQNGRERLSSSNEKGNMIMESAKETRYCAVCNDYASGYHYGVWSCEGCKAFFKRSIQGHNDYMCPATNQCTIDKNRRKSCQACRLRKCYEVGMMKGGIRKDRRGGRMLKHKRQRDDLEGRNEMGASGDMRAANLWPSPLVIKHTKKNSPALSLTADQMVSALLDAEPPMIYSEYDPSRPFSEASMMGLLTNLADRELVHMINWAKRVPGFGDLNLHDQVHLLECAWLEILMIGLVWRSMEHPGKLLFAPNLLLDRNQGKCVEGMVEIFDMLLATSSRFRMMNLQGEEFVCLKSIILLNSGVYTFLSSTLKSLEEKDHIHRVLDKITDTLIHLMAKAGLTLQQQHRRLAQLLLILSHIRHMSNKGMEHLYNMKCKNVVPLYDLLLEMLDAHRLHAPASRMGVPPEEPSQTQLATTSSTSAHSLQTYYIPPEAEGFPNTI
Procedure: as §1

estrogen receptor [11] = molecular target: T5, estrogen receptor (Rattus norvegicus, UniProt P06211); experiment: Specific binding of radiolabelled J995 to estrogen receptor of rats
T5 construct: using cytosolic preparations of uterine tissue of rats and mice and MCF-7 tumor cells; from tissue; host or cells: rat uterine cytosol
T5 sequence (P06211 1-600): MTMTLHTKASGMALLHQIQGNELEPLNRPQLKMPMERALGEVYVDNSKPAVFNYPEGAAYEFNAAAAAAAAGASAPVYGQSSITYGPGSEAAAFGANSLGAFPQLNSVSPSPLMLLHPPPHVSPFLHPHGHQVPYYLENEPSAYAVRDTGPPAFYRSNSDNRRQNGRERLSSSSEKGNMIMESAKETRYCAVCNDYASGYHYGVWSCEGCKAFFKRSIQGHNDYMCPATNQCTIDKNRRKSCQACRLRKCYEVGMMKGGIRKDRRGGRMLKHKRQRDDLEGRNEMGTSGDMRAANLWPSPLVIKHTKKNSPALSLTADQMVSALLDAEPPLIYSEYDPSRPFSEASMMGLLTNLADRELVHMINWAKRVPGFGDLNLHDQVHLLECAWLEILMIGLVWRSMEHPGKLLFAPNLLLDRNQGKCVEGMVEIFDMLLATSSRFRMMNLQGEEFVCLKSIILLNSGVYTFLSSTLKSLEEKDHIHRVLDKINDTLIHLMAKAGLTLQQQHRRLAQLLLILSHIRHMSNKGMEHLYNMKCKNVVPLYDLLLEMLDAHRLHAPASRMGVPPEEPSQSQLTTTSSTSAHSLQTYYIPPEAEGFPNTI
Procedure: as §1

estrogen receptor [12] = molecular target: T6, estrogen receptor (Homo sapiens, UniProt P03372); experiment: Specific binding of radiolabelled J995 to human estrogen receptor
T6 construct: using cytosolic preparations of uterine tissue of rats and mice and MCF-7 tumor cells; endogenous in cells; host or cells: MCF-7 cytosol
T6 sequence (P03372 1-595): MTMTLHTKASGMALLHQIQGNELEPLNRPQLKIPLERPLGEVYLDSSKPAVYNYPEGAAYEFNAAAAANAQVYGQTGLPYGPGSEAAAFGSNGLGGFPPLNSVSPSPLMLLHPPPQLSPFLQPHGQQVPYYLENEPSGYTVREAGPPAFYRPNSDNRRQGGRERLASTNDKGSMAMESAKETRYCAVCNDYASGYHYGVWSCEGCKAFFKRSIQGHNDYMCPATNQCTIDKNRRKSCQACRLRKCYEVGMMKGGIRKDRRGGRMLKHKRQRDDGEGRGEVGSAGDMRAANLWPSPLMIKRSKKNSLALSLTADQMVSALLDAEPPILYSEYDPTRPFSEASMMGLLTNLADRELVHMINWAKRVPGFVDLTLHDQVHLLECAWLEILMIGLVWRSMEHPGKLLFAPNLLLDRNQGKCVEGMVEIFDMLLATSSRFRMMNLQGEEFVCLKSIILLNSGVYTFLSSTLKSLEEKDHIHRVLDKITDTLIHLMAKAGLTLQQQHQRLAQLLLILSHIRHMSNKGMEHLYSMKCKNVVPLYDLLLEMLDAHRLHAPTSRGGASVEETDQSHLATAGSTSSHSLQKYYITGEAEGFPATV
Procedure: as §1

[13] = Clinical pharmacokinetics after oral administration in postmenopausal women; assay type: in vivo, human
Procedure: Studies in the human were performed with oral administration of the compound in postmenopausal women. Several doses at single and multiple administration were evaluated. […] studies were performed with solutions in oily vehicles for parenteral administration. Oral treatment was performed with suspensions of cristalline J995 in aquaeous vehicle. Clinical studies were performed with amorphous drug substance galenically formulated with a mixture of conventional ingredients as capsules or tablets.

[14] = single oral dose of 0.5 mg, FIG. 11
[15] = single oral dose of 0.5 mg, over 5 days, FIG. 11

## COc1cc2c(cc1O)CC[C@@H]1[C@@H]2CC[C@]2(C)[C@@H](O)CC[C@@H]12 [2-MeOE2, 2-methoxyoestradiol]
[1]
  growth of tumours in vivo: inhibits the growth of tumours
Endothelial cell
  endothelial cell proliferation and migration: inhibits endothelial cell proliferation and migration
angiogenesis
  in vitro angiogenesis: inhibits
microtubule
  microtubule polymerisation: can inhibit microtubule polymerisation
tubulin
  inhibition of colchicine binding to tubulin: weak inhibitor of colchicine binding to tubulin

## COc1cc2c(cc1OS(N)(=O)=O)CC[C@@H]1[C@@H]2CC[C@]2(C)C(=O)CC[C@@H]12 [2-methoxyoestrone-3-O-sulphamate, reference compound]
E1-STS [2]
  potency as steroid sulphatase inhibitor relative to EMATE: equipotent with EMATE
Uterine growth; rat, in vivo
  oestrogenicity: devoid of oestrogenicity

## C#C[C@]1(O)CC[C@H]2[C@@H]3CCc4cc(O)ccc4[C@H]3CC[C@@]21C [EE, ethinyl estradiol]
[3]
  oestrogenicity in the liver relative to orally applied natural estrogens: 4 to 18 times
[4]
  definition of blood levels (individual variation): does not lead to well defined blood levels

## CC12CCC3c4ccc(OS(N)(=O)=O)cc4CCC3C1CCC2=O (stereo not drawn) [EMATE, oestrone-3-O-sulphamate]
E1-STS [2]
  manner of inhibition of the E1-STS enzyme: time- and concentration-dependent manner
[5]
  inhibition of DHA-STS: inhibits dehydroepiandrosterone sulphatase
Rat liver DHA-STS
  inhibition of rat liver DHA-STS activity: 99%
[6]
  effect on memory: memory enhancing effect
Uterine growth; rats, oral
  oral uterotrophic activity relative to estradiol: 100 times
E1-STS [7]
  inhibition of E1-STS activity: more than 99%

## C[C@]12CC[C@@H]3c4ccc(OS(N)(=O)=O)cc4CC[C@H]3[C@@H]1CC[C@@H]2O [J995, oestradiol-3-sulphamate]
[8]
  amount circulating in the erythrocyte compartment: 98-99%
Estrogen receptor [9]; huge excess of J995
  displacement of specifically bound radioactively labelled Oestradiol: unable to displace specifically bound radioactively labelled Oestradiol
Estrogen receptor [9]; in vitro
  affinity to the estrogen receptor: no affinity to the estrogen receptor
Estrogen receptor [10]
  specific binding of radioactively labelled compound to estrogen receptor: no specific binding
Estrogen receptor [11]
  specific binding of radioactively labelled compound to estrogen receptor: no specific binding
Estrogen receptor [12]
  specific binding of radioactively labelled compound to estrogen receptor: no specific binding
[13]; FIG. 5: single oral 2 mg J995 vs multiple doses 2 mg E2V
  factor by which metabolite oestrone sulphate stays lower than under Oestradiol Valerate treatment: ≥ 10
[13]; FIGS. 5-10
  constancy of blood levels of oestrogens: very constant, long lasting blood levels
[13]; FIGS. 6, 7
  oestradiol levels compared with Oestradiol Valerate at the same dose: higher and much longer lasting oestradiol levels
[13]; after 14 days of 100 μg per day, wash out phase over 144 hours, FIG. 9
  oestrone sulphate levels in wash out phase: almost constant oestrone sulphate levels
[13]; oral
  orally administered compound reaching the erythrocyte pool: ~100%
[13]; oral, FIG. 11
  prodrug appearing as oestrone and oestradiol in the circulation: more than 50%
[13]; [14]
  total ES amount in blood: ≈ 500 μg/5 L blood
  total ES concentration per blood volume: ~100 μg/L blood
  total ES erythrocyte conc.: Ca. 200 ng/mL erythrocytes
[13]; [15]
  E1S plasma level: 700 pg/mL
  E1 plasma level: 40 pg/mL
[13]; single oral dose of 0.5 mg, 110 l×700 ng/l/day
  Clearance of E1S calculated (amount): 385 μg/5 days
[13]; single oral dose of 0.5 mg, 1870 l×40 ng/l/day
  Clearance of E1 calculated (amount): 374 μg/5 days

## oestrone-3-N-sulphamate
E1-STS [2]
  manner of inhibition of the E1-STS enzyme: weaker non-time-dependent inactivators

## oestrone-3-S-sulphamate
E1-STS [2]
  manner of inhibition of the E1-STS enzyme: weaker non-time-dependent inactivators
